From ChEMBL document CHEMBL4765467, “Improving Thermodynamic Stability and Anticoagulant Activity of a Thrombin Binding Aptamer by Incorporation of 8-trifluoromethyl-2'-deoxyguanosine” (J Med Chem, 2021)
Active and inactive are the calls of the source. No cut-off for these calls is given here.

Columns and labels:
Plasma [1] = experiment: Anticoagulant activity in human plasma assessed prothrombin time at 0.25 to 1 uM; type: functional; conditions: dose 0.25-1 µM
[2] = Thermodynamic stability assessed as change in melting temperature by CD spectroscopy relative to TBA; type: physicochemical
[3] = Stability in 50% human plasma assessed as compound degradation at 50 uM measured within 3 hrs by PAGE analysis; type: ADME, cell-free
[4] = Stability in 50% human plasma assessed as compound degradation at 50 uM measured within 3 hrs by PAGE analysis relative to TBA; type: ADME, cell-free
Plasma [5] = experiment: Anticoagulant activity in human plasma assessed prothrombin time in presence of 1.5 fold complementary sequence of TBA; type: functional, cell-free
Plasma [6] = experiment: Anticoagulant activity in human plasma assessed prothrombin time in presence of complementary sequence of TBA; type: functional, cell-free

Structure (SMILES)	PT (Plasma [1]) [s]	deltaTm [2] [°C]	Stabilty [3]	Stabilty [4]	Activity (Plasma [5])	Activity (Plasma [6])
Cc1cn([C@H]2C[C@H](OP(=O)(O)OC[C@H]3O[C@@H](n4cnc5c(=O)[nH]c(N)nc54)C[C@@H]3OP(=O)(O)OC[C@H]3O[C@@H](n4cnc5c(=O)[nH]c(N)nc54)C[C@@H]3O)[C@@H](COP(=O)(O)O[C@H]3C[C@H](n4cc(C)c(=O)[nH]c4=O)O[C@@H]3COP(=O)(O)O[C@H]3C[C@H](n4cnc5c(=O)[nH]c(N)nc54)O[C@@H]3COP(=O)(O)O[C@H]3C[C@H](n4cnc5c(=O)[nH]c(N)nc54)O[C@@H]3COP(=O)(O)O[C@H]3C[C@H](n4cc(C)c(=O)[nH]c4=O)O[C@@H]3COP(=O)(O)O[C@H]3C[C@H](n4cnc5c(=O)[nH]c(N)nc54)O[C@@H]3COP(=O)(O)O[C@H]3C[C@H](n4cc(C)c(=O)[nH]c4=O)O[C@@H]3COP(=O)(O)O[C@H]3C[C@H](n4cnc5c(=O)[nH]c(N)nc54)O[C@@H]3COP(=O)(O)O[C@H]3C[C@H](n4c(C(F)(F)F)nc5c(=O)[nH]c(N)nc54)O[C@@H]3COP(=O)(O)O[C@H]3C[C@H](n4cc(C)c(=O)[nH]c4=O)O[C@@H]3COP(=O)(O)O[C@H]3C[C@H](n4cc(C)c(=O)[nH]c4=O)O[C@@H]3COP(=O)(O)O[C@H]3C[C@H](n4cnc5c(=O)[nH]c(N)nc54)O[C@@H]3COP(=O)(O)O[C@H]3C[C@H](n4cnc5c(=O)[nH]c(N)nc54)O[C@@H]3COP(=O)(O)O)O2)c(=O)[nH]c1=O	26	8.1	Unstable			
Cc1cn([C@H]2C[C@H](OP(=O)(O)OC[C@H]3O[C@@H](n4cnc5c(=O)[nH]c(N)nc54)C[C@@H]3OP(=O)(O)OC[C@H]3O[C@@H](n4cnc5c(=O)[nH]c(N)nc54)C[C@@H]3OP(=O)(O)OC[C@H]3O[C@@H](n4cc(C)c(=O)[nH]c4=O)C[C@@H]3OP(=O)(O)OC[C@H]3O[C@@H](n4c(C(F)(F)F)nc5c(=O)[nH]c(N)nc54)C[C@@H]3OP(=O)(O)OC[C@H]3O[C@@H](n4cc(C)c(=O)[nH]c4=O)C[C@@H]3OP(=O)(O)OC[C@H]3O[C@@H](n4cnc5c(=O)[nH]c(N)nc54)C[C@@H]3OP(=O)(O)OC[C@H]3O[C@@H](n4cnc5c(=O)[nH]c(N)nc54)C[C@@H]3OP(=O)(O)OC[C@H]3O[C@@H](n4cc(C)c(=O)[nH]c4=O)C[C@@H]3OP(=O)(O)OC[C@H]3O[C@@H](n4cc(C)c(=O)[nH]c4=O)C[C@@H]3OP(=O)(O)OC[C@H]3O[C@@H](n4cnc5c(=O)[nH]c(N)nc54)C[C@@H]3OP(=O)(O)OC[C@H]3O[C@@H](n4cnc5c(=O)[nH]c(N)nc54)C[C@@H]3O)[C@@H](COP(=O)(O)O[C@H]3C[C@H](n4cc(C)c(=O)[nH]c4=O)O[C@@H]3COP(=O)(O)O[C@H]3C[C@H](n4cnc5c(=O)[nH]c(N)nc54)O[C@@H]3COP(=O)(O)O[C@H]3C[C@H](n4cnc5c(=O)[nH]c(N)nc54)O[C@@H]3COP(=O)(O)O)O2)c(=O)[nH]c1=O	19.1	-3.1	Unstable			
Cc1cn([C@H]2C[C@H](OP(=O)(O)OC[C@H]3O[C@@H](n4c(C(F)(F)F)nc5c(=O)[nH]c(N)nc54)C[C@@H]3OP(=O)(O)OC[C@H]3O[C@@H](n4cnc5c(=O)[nH]c(N)nc54)C[C@@H]3OP(=O)(O)OC[C@H]3O[C@@H](n4cc(C)c(=O)[nH]c4=O)C[C@@H]3OP(=O)(O)OC[C@H]3O[C@@H](n4cnc5c(=O)[nH]c(N)nc54)C[C@@H]3OP(=O)(O)OC[C@H]3O[C@@H](n4cc(C)c(=O)[nH]c4=O)C[C@@H]3OP(=O)(O)OC[C@H]3O[C@@H](n4c(C(F)(F)F)nc5c(=O)[nH]c(N)nc54)C[C@@H]3OP(=O)(O)OC[C@H]3O[C@@H](n4cnc5c(=O)[nH]c(N)nc54)C[C@@H]3OP(=O)(O)OC[C@H]3O[C@@H](n4cc(C)c(=O)[nH]c4=O)C[C@@H]3OP(=O)(O)OC[C@H]3O[C@@H](n4cc(C)c(=O)[nH]c4=O)C[C@@H]3OP(=O)(O)OC[C@H]3O[C@@H](n4c(C(F)(F)F)nc5c(=O)[nH]c(N)nc54)C[C@@H]3OP(=O)(O)OC[C@H]3O[C@@H](n4cnc5c(=O)[nH]c(N)nc54)C[C@@H]3O)[C@@H](COP(=O)(O)O[C@H]3C[C@H](n4cc(C)c(=O)[nH]c4=O)O[C@@H]3COP(=O)(O)O[C@H]3C[C@H](n4cnc5c(=O)[nH]c(N)nc54)O[C@@H]3COP(=O)(O)O[C@H]3C[C@H](n4c(C(F)(F)F)nc5c(=O)[nH]c(N)nc54)O[C@@H]3COP(=O)(O)O)O2)c(=O)[nH]c1=O	18.6	30	Unstable	Stable	Active	
Cc1cn([C@H]2C[C@H](OP(=O)(O)OC[C@H]3O[C@@H](n4cnc5c(=O)[nH]c(N)nc54)C[C@@H]3OP(=O)(O)OC[C@H]3O[C@@H](n4cnc5c(=O)[nH]c(N)nc54)C[C@@H]3OP(=O)(O)OC[C@H]3O[C@@H](n4cc(C)c(=O)[nH]c4=O)C[C@@H]3OP(=O)(O)OC[C@H]3O[C@@H](n4cnc5c(=O)[nH]c(N)nc54)C[C@@H]3OP(=O)(O)OC[C@H]3O[C@@H](n4cc(C)c(=O)[nH]c4=O)C[C@@H]3OP(=O)(O)OC[C@H]3O[C@@H](n4c(C(F)(F)F)nc5c(=O)[nH]c(N)nc54)C[C@@H]3OP(=O)(O)OC[C@H]3O[C@@H](n4cnc5c(=O)[nH]c(N)nc54)C[C@@H]3OP(=O)(O)OC[C@H]3O[C@@H](n4cc(C)c(=O)[nH]c4=O)C[C@@H]3OP(=O)(O)OC[C@H]3O[C@@H](n4cc(C)c(=O)[nH]c4=O)C[C@@H]3OP(=O)(O)OC[C@H]3O[C@@H](n4cnc5c(=O)[nH]c(N)nc54)C[C@@H]3OP(=O)(O)OC[C@H]3O[C@@H](n4cnc5c(=O)[nH]c(N)nc54)C[C@@H]3O)[C@@H](COP(=O)(O)O[C@H]3C[C@H](n4cc(C)c(=O)[nH]c4=O)O[C@@H]3COP(=O)(O)O[C@H]3C[C@H](n4cnc5c(=O)[nH]c(N)nc54)O[C@@H]3COP(=O)(O)O[C@H]3C[C@H](n4cnc5c(=O)[nH]c(N)nc54)O[C@@H]3COP(=O)(O)O)O2)c(=O)[nH]c1=O	21.9	7.6	Unstable			
Cc1cn([C@H]2C[C@H](OP(=O)(O)OC[C@H]3O[C@@H](n4cnc5c(=O)[nH]c(N)nc54)C[C@@H]3OP(=O)(O)OC[C@H]3O[C@@H](n4cnc5c(=O)[nH]c(N)nc54)C[C@@H]3OP(=O)(O)OC[C@H]3O[C@@H](n4cc(C)c(=O)[nH]c4=O)C[C@@H]3OP(=O)(O)OC[C@H]3O[C@@H](n4cnc5c(=O)[nH]c(N)nc54)C[C@@H]3OP(=O)(O)OC[C@H]3O[C@@H](n4cc(C)c(=O)[nH]c4=O)C[C@@H]3OP(=O)(O)OC[C@H]3O[C@@H](n4cnc5c(=O)[nH]c(N)nc54)C[C@@H]3OP(=O)(O)OC[C@H]3O[C@@H](n4cnc5c(=O)[nH]c(N)nc54)C[C@@H]3OP(=O)(O)OC[C@H]3O[C@@H](n4cc(C)c(=O)[nH]c4=O)C[C@@H]3OP(=O)(O)OC[C@H]3O[C@@H](n4cc(C)c(=O)[nH]c4=O)C[C@@H]3OP(=O)(O)OC[C@H]3O[C@@H](n4cnc5c(=O)[nH]c(N)nc54)C[C@@H]3OP(=O)(O)OC[C@H]3O[C@@H](n4cnc5c(=O)[nH]c(N)nc54)C[C@@H]3O)[C@@H](COP(=O)(O)O[C@H]3C[C@H](n4cc(C)c(=O)[nH]c4=O)O[C@@H]3COP(=O)(O)O[C@H]3C[C@H](n4c(C(F)(F)F)nc5c(=O)[nH]c(N)nc54)O[C@@H]3COP(=O)(O)O[C@H]3C[C@H](n4cnc5c(=O)[nH]c(N)nc54)O[C@@H]3COP(=O)(O)O)O2)c(=O)[nH]c1=O	9.9	-17.3	Unstable			
Cc1cn([C@H]2C[C@H](OP(=O)(O)OC[C@H]3O[C@@H](n4cnc5c(=O)[nH]c(N)nc54)C[C@@H]3OP(=O)(O)OC[C@H]3O[C@@H](n4cnc5c(=O)[nH]c(N)nc54)C[C@@H]3OP(=O)(O)OC[C@H]3O[C@@H](n4cc(C)c(=O)[nH]c4=O)C[C@@H]3OP(=O)(O)OC[C@H]3O[C@@H](n4cnc5c(=O)[nH]c(N)nc54)C[C@@H]3OP(=O)(O)OC[C@H]3O[C@@H](n4cc(C)c(=O)[nH]c4=O)C[C@@H]3OP(=O)(O)OC[C@H]3O[C@@H](n4cnc5c(=O)[nH]c(N)nc54)C[C@@H]3OP(=O)(O)OC[C@H]3O[C@@H](n4cnc5c(=O)[nH]c(N)nc54)C[C@@H]3OP(=O)(O)OC[C@H]3O[C@@H](n4cc(C)c(=O)[nH]c4=O)C[C@@H]3OP(=O)(O)OC[C@H]3O[C@@H](n4cc(C)c(=O)[nH]c4=O)C[C@@H]3OP(=O)(O)OC[C@H]3O[C@@H](n4cnc5c(=O)[nH]c(N)nc54)C[C@@H]3OP(=O)(O)OC[C@H]3O[C@@H](n4cnc5c(=O)[nH]c(N)nc54)C[C@@H]3O)[C@@H](COP(=O)(O)O[C@H]3C[C@H](n4cc(C)c(=O)[nH]c4=O)O[C@@H]3COP(=O)(O)O[C@H]3C[C@H](n4cnc5c(=O)[nH]c(N)nc54)O[C@@H]3COP(=O)(O)O[C@H]3C[C@H](n4c(C(F)(F)F)nc5c(=O)[nH]c(N)nc54)O[C@@H]3COP(=O)(O)O)O2)c(=O)[nH]c1=O	18.3	5.7	Unstable			
Cc1cn([C@H]2C[C@H](OP(=O)(O)OC[C@H]3O[C@@H](n4cnc5c(=O)[nH]c(N)nc54)C[C@@H]3OP(=O)(O)OC[C@H]3O[C@@H](n4cc(C)c(=O)[nH]c4=O)C[C@@H]3OP(=O)(O)OC[C@H]3O[C@@H](n4cnc5c(=O)[nH]c(N)nc54)C[C@@H]3OP(=O)(O)OC[C@H]3O[C@@H](n4cnc5c(=O)[nH]c(N)nc54)C[C@@H]3OP(=O)(O)OC[C@H]3O[C@@H](n4cc(C)c(=O)[nH]c4=O)C[C@@H]3OP(=O)(O)OC[C@H]3O[C@@H](n4cc(C)c(=O)[nH]c4=O)C[C@@H]3OP(=O)(O)OC[C@H]3O[C@@H](n4cnc5c(=O)[nH]c(N)nc54)C[C@@H]3OP(=O)(O)OC[C@H]3O[C@@H](n4cnc5c(=O)[nH]c(N)nc54)C[C@@H]3O)[C@@H](COP(=O)(O)O[C@H]3C[C@H](n4cc(C)c(=O)[nH]c4=O)O[C@@H]3COP(=O)(O)O[C@H]3C[C@H](n4cnc5c(=O)[nH]c(N)nc54)O[C@@H]3COP(=O)(O)O[C@H]3C[C@H](n4cnc5c(=O)[nH]c(N)nc54)O[C@@H]3COP(=O)(O)O[C@H]3C[C@H](n4cc(C)c(=O)[nH]c4=O)O[C@@H]3COP(=O)(O)O[C@H]3C[C@H](n4cc(C)c(=O)[nH]c4=O)O[C@@H]3COP(=O)(O)O[C@H]3C[C@H](n4cnc5c(=O)[nH]c(N)nc54)O[C@@H]3COP(=O)(O)O[C@H]3C[C@H](n4cnc5c(=O)[nH]c(N)nc54)O[C@@H]3COP(=O)(O)O)O2)c(=O)[nH]c1=O	19.2		Stable		inactive	inactive
